According to patent US20240197938A1, “ANTIMICROBIAL COMPOUNDS BASED ON GLUCOHEPTONIC ACIDS AND THEIR SALTS” (HARCROS CHEMICALS, INC., priority 2021, published 2024):

What was measured:
Assay type in all cases: cell-based
[1] = system: Candida albicans; experiment: ASTM E2315-16 Time-Kill Procedure; details: for Log Reduction: 30 seconds; for Log Reduction (LR): contact time 10 minutes
Procedure: (§1) Select compounds were tested for antimicrobial activity using ASTM method […]-16 (Standard Guide for Assessment of Antimicrobial Activity using a Time-Kill Procedure). Six microbes were tested: Candida albicans, Staphylococcus aureus, Staphylococcus epidermidis. Escherichia coli, Salmonella abony, and Listeria monocytogenes. Four chlorhexidine salts were tested: chlorhexidine di-α-glucoheptonate (Sample G), chlorhexidine di-β73-glucoheptonate (Sample H), chlorhexidine digluconate (Sample I), and chlorhexidine diacetate (Sample P). Both chlorhexidine diglucoheptonate salts were prepared at a 2:1 molar ratio of glucoheptonic acid to chlorhexidine. Dilutions of each salt were prepared using sterile water (20-30 ppm hardness), to achieve the desired wt. % concentration. Two glucoheptonic acids were evaluated for antimicrobial activity against the same six microbes as Example 13. Sample L was α-glucoheptonic acid. Sample M was β73-glucoheptonic acid. Benzalkonium salts were also tested using the same procedure as set forth in Example 13. The samples were benzalkonium chloride (C12-C16) (Sample C), benzalkonium chloride (C12-C14) (Sample D), benzalkonium chloride in combination with a stoichiometric amount of α-glucoheptonate (Sample F), and benzalkonium chloride in combination with a molar excess of α-glucoheptonate (Sample N). Sample F was prepared by mixing and extensively heating a stoichiometric quantity (1:1) of sodium α-glucoheptonate with benzalkonium chloride, typified by the C12-14 alkyl chain. Sample N was prepared by simply blending benzalkonium chloride, typified by the C12-16 chain, with a molar excess of sodium α-glucoheptonate (1.6:1). Both Samples F and N contain sodium chloride.

[2] = system: Staphylococcus aureus; experiment: ASTM E2315-16 Time-Kill Procedure; details: 30 seconds
Procedure: as §1

[3] = system: Staphylococcus epidermidis; experiment: ASTM E2315-16 Time-Kill Procedure; details: for Log Reduction: 30 seconds
Procedure: as §1

[4] = system: Escherichia coli; experiment: ASTM E2315-16 Time-Kill Procedure; details: 30 seconds
Procedure: as §1, with “concentration.” for “concentration. Two glucoheptonic acids were evaluated for antimicrobial activity against the same six microbes as Example 13. Sample L was α-glucoheptonic acid. Sample M was β73-glucoheptonic acid.”

[5] = system: Listeria monocytogenes; experiment: ASTM E2315-16 Time-Kill Procedure; details: for Log Reduction: 30 seconds
Procedure: as §1, with “concentration.” for “concentration. Two glucoheptonic acids were evaluated for antimicrobial activity against the same six microbes as Example 13. Sample L was α-glucoheptonic acid. Sample M was β73-glucoheptonic acid.”

[6] = system: Salmonella abony; experiment: ASTM E2315-16 Time-Kill Procedure; details: 30 seconds
Procedure: as §1, with “concentration.” for “concentration. Two glucoheptonic acids were evaluated for antimicrobial activity against the same six microbes as Example 13. Sample L was α-glucoheptonic acid. Sample M was β73-glucoheptonic acid.”

[7] = system: all microbes (Candida albicans, Staphylococcus aureus, Staphylococcus epidermidis, Escherichia coli, Salmonella abony, Listeria monocytogenes); experiment: ASTM E2315-16 Time-Kill Procedure, average across all microbes; details: for Log Reduction, Average, all microbes: 30 seconds; for average Log Reduction (LR) in microbial population across all microbes: 10 minutes
Procedure: Select compounds were tested for antimicrobial activity using ASTM method […]-16 (Standard Guide for Assessment of Antimicrobial Activity using a Time-Kill Procedure). Six microbes were tested: Candida albicans, Staphylococcus aureus, Staphylococcus epidermidis. Escherichia coli, Salmonella abony, and Listeria monocytogenes. Four chlorhexidine salts were tested: chlorhexidine di-α-glucoheptonate (Sample G), chlorhexidine di-β73-glucoheptonate (Sample H), chlorhexidine digluconate (Sample I), and chlorhexidine diacetate (Sample P). Both chlorhexidine diglucoheptonate salts were prepared at a 2:1 molar ratio of glucoheptonic acid to chlorhexidine. Dilutions of each salt were prepared using sterile water (20-30 ppm hardness), to achieve the desired wt. % concentration. Samples G, H, I, and P were also tested at a concentration of 0.60 wt % active and evaluated for the average Log Reduction in microbial population at 10 minutes, across all microbes. A further test was conducted at a concentration of 1.0 wt % active and evaluated for the average Log Reduction in microbial population at 10 minutes, across all microbes. Benzalkonium salts were also tested using the same procedure as set forth in Example 13. The samples were benzalkonium chloride (C12-C16) (Sample C), benzalkonium chloride (C12-C14) (Sample D), benzalkonium chloride in combination with a stoichiometric amount of α-glucoheptonate (Sample F), and benzalkonium chloride in combination with a molar excess of α-glucoheptonate (Sample N). Sample F was prepared by mixing and extensively heating a stoichiometric quantity (1:1) of sodium α-glucoheptonate with benzalkonium chloride, typified by the C12-14 alkyl chain. Sample N was prepared by simply blending benzalkonium chloride, typified by the C12-16 chain, with a molar excess of sodium α-glucoheptonate (1.6:1). Both Samples F and N contain sodium chloride. A further antimicrobial test was conducted to determine the log reduction at 10 minutes. Samples C, D, F, and N are as defined above.

| Compound | Log Reduction ([1]; 0.20% (wt. %)) | Log Reduction ([1]; 0.60% (wt. %)) | Log Reduction ([1]; 1.00% (wt. %)) | Log Reduction ([2]; 0.20% (wt. %)) | Log Reduction ([2]; 0.60% (wt. %)) | Log Reduction ([2]; 1.00% (wt. %)) | Log Reduction ([3]; 0.20% (wt. %)) | Log Reduction ([3]; 0.60% (wt. %)) | Log Reduction ([3]; 1.00% (wt. %)) | Log Reduction ([4]; 0.20% (wt. %)) | Log Reduction ([4]; 0.60% (wt. %)) | Log Reduction ([4]; 1.00% (wt. %)) | Log Reduction ([5]; 0.20% (wt. %)) | Log Reduction ([5]; 0.60% (wt. %)) | Log Reduction ([5]; 1.00% (wt. %)) | Log Reduction ([6]; 0.20% (wt. %)) | Log Reduction ([6]; 0.60% (wt. %)) | Log Reduction ([6]; 1.00% (wt. %)) | Log Reduction, Average, all microbes ([7]; 0.20% (wt. %)) | Log Reduction, Average, all microbes ([7]; 0.60% (wt. %)) | further results |
| --- | --- | --- | --- | --- | --- | --- | --- | --- | --- | --- | --- | --- | --- | --- | --- | --- | --- | --- | --- | --- | --- |
| N=C(NCCCCCCNC(=N)NC(=N)Nc1ccc(Cl)cc1)NC(=N)Nc1ccc(Cl)cc1.O=C(O)C(O)C(O)C(O)C(O)C(O)CO.O=C(O)C(O)C(O)C(O)C(O)C(O)CO [Sample G, chlorhexidine di-α-glucoheptonate] | 0.75 | 1.45 | 4.56 | 0.77 | 1.07 | 3.06 | 0.95 | 1.91 | 3.65 | 3.57 | 3.66 | 3.77 | 1.34 | 1.49 | 4.99 | 3.04 | 3.14 | 3.39 | 1.74 | 2.12 | performance in the Time-Kill Test ([1]; in words): performed very strongly; performance in the Time-Kill Test ([5]; in words): performed very strongly; Log Reduction, Average, all microbes ([7]; 1.00% (wt. %)): 3.90; average Log Reduction (LR) in microbial population across all microbes ([7]; 0.60 wt % active): 3.85; average Log Reduction (LR) in microbial population across all microbes ([7]; 1.0 wt % active): 5.34 |
| N=C(NCCCCCCNC(=N)NC(=N)Nc1ccc(Cl)cc1)NC(=N)Nc1ccc(Cl)cc1.O=C(O)[C@H](O)[C@@H](O)[C@H](O)[C@H](O)CO.O=C(O)[C@H](O)[C@@H](O)[C@H](O)[C@H](O)CO [Sample I, chlorhexidine digluconate] | 2.91 | 4.35 | 6.40 | 1.77 | 3.07 | 3.37 | 2.00 | 3.08 | 3.25 | 2.93 | 3.07 | 3.27 | 1.99 | 3.13 | 3.91 | 1.86 | 2.63 | 2.89 | 2.24 | 3.22 | Log Reduction, Average, all microbes ([7]; 1.00% (wt. %)): 3.85; average Log Reduction (LR) in microbial population across all microbes ([7]; 0.60 wt % active): 4.84; average Log Reduction (LR) in microbial population across all microbes ([7]; 1.0 wt % active): 5.46 |
| O=C(O)[C@H](O)[C@H](O)[C@@H](O)[C@H](O)[C@H](O)CO [Sample L, α-glucoheptonic acid] | – | – | – | – | – | – | – | – | – | – | – | – | – | – | – | – | – | – | – | – | Log Reduction (LR) ([1]; 2.5 % w/w): 3.65; Log Reduction (LR) ([1]; 5.0 % w/w): 3.00; Log Reduction (LR) ([3]; 2.5 % w/w, contact time 10 minutes): 3.39; Log Reduction (LR) ([3]; 5.0 % w/w, contact time 5 minutes): 3.05; Log Reduction (LR) ([3]; 5.0 % w/w, contact time 10 minutes): 3.50 |
